What was measured:
[1] = Fe(III)–Ga(III) metal–metal competition UV–vis titrations; type: physicochemical; conditions: Ga(III)-L + Fe(III) competition titration, pH 1.5; judged to carry a greater error, not retained
Protocol: Assuming the domination of the [GaHL1]^+ complex below pH 2, its stability was determined by metal–metal competition titrations, (i) Fe(III)-H3L1 + Ga(III) and (ii) Ga(III)-H3L1 + Fe(III), both performed at pH 1.5. This pH was chosen in order to prevent the hydrolysis of the free metal ions and decomposition of the ligand, which is common for hydroxamic acids at a very acidic pH.[37],[51] Upon addition of Ga(III) (up to 600 equiv) to the Fe(III)-H3L1 solution, the UV–vis band of [FeHL1]^+ (λmax = 470 nm, Figure 2a) slowly disappeared as a result of the [GaHL1]^+ complex formation. […]
For the Ga(III)-H4L2 system, [GaH2L2]^+ was assumed to be the most abundant species at pH 1.5, and its stability was again determined via (i) Fe(III)-H4L2 + Ga(III) and (ii) Ga(III)-H4L2 + Fe(III) titrations (Figure S8). […]
For the Ga(III)-H3L4 system, [GaHL4]^+ was assumed to be the major complex at pH 1.5, and its stability was determined via an Fe(III)-H3L4 + Ga(III) competition titration (Figure S9). […]
In order to calculate the stability constants of the investigated complexes, several competitive titrations were performed. […] After preparation, each solution was allowed to equilibrate for about 1 h, and then its UV–vis spectrum was recorded. The vials were kept in the dark, and the absorbance was measured again after 24, 48, and 120 h. […]

[2] = pGa calculation (ligand sequestering ability); type: physicochemical; conditions: pGa = −log[Ga(III)free], pH 7.4, cL = 10 μM, cGa(III) = 1 μM
Excerpt: Despite a large variety of PET chelators synthesized and tested in order to provide strong coordination of Ga(III) and Zr(IV) in vivo, until now it is has been hard to avoid the release of these metal ions in the body. Here we report two new Ga(III) and Zr(IV) hydroxamate chelators, designed to achieve an efficient sequestering of these metal ions but also to understand how the cyclization and the introduction of an additional hydroxamate group influences the stability of Zr(IV) complexes. Therefore, it is important to evaluate and compare the Ga(III)- and Zr(IV)-sequestering abilities of H3L1 and H4L2 with those of other chelators. However, the direct comparison of the stability constants of metal complexes is not straightforward, and other tools taking into account all the physicochemical properties of the ligands, i.e. their denticity, coordination modes, and acid–base properties, should be used.[52] In order to reliably compare the chelating abilities of H3L1 and H4L2 toward Ga(III) and Zr(IV) ions, the pM values were calculated. pFe was originally introduced by Raymond for the comparison of iron-siderophore systems;[53] pGa = −log[Ga(III)free] and pZr = −log[Zr(IV)free] were calculated at pH 7.4 with cL = 10 μM and cGa(III)/Zr(IV) = 1 μM (Table 2).

Compound	log β [GaHL] [1]	pGa [2]	log β [GaH2L] [1]
O=C1CCCN(O)C(=O)CCCNC(=O)CCCN(O)C(=O)CCCNC(=O)CCCN(O)C(=O)CCCN1 [H3L1, 1,11,21-Trihydroxy-1,6,11,16,21,26-hexaazacyclotriacontane-2,7,12,17,22,27-hexaone]	28.3(6)	22.5	
N[C@H]1CCCCNC(=O)CCCN(O)C(=O)CCCNC(=O)CCCN(O)C(=O)CCCNC(=O)CCCN(O)C(=O)CCCNC(=O)CCCN(O)C(=O)CCCNC1=O [H4L2, (S)-43-Amino-6,16,26,36-tetrahydroxy-1,6,11,16,21,26,31,36,41-nonaazacycloheptatetracontane-2,7,12,17,22,27,32,37,42-nonaone]		22.3	39.06(4)

— PMC8424644, “Thermodynamic Stability and Speciation of Ga(III) and Zr(IV) Complexes with High-Denticity Hydroxamate Chelators” (Inorganic Chemistry, 2021)
